# Measured values from patent publication US9655887B2, “Pharmaceutical composition and the use thereof, and application regime of said pharmaceutical composition for on-demand contraception” (BAYER PHARMA AKTIENGESELLSCHAFT, priority 2013, dated 2017).
# Target: EP2 subtype of the human PGE2 receptor (hEP2 receptor) (Homo sapiens, UniProt P43116)
# Test: cAMP antagonism test, human prostaglandin E2 (subtype EP2) receptor signal
# Assay type: cell-based
# Method in brief: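 Cells (625000 cells/ml, mixed with cAMP-d2) were preincubated 20 min at RT with compound ([…]). They were then stimulated 60 min at RT with a 3× PGE2 solution (1.5 nM) in PBS-IBMX and lysed for 20 min. cAMP was read by HTRF as the 665/620 nm ratio ×10000, with antagonism seen as a rise in FRET signal.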
# Chain of EP2 subtype of the human PGE2 receptor (hEP2 receptor) (P43116 whole entry): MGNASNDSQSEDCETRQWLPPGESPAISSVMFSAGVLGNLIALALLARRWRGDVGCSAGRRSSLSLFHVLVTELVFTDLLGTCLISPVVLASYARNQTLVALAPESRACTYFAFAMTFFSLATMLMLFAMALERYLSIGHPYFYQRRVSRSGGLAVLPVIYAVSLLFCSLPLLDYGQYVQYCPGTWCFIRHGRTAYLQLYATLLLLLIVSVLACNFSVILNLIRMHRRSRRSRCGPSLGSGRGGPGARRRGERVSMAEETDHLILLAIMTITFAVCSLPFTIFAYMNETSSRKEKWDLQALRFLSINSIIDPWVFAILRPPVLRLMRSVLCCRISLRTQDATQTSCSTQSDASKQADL
row,IC50 [nM],Compound
1,> 50,"Cc1c(C(=O)NCCOCC(F)(F)F)ccc2nn(CC3CCN(C(=O)c4ccc(C5CC5)cc4)CC3)cc12 [Example E70, 2-{[1-(4-cyclopropylbenzoyl)piperidin-4-yl]methyl}-4-methyl-N-[2-(2,2,2-trifluoro-ethoxy)ethyl]-2H-indazole-5-carboxamide]"
2,> 50,"Cc1c(C(=O)NCCOC(F)(F)F)ccc2nn(CC3CN(C(=O)c4ccc(Cl)cc4)C3)cc12 [Example E105, 2-{[1-(4-chlorobenzoyl)azetidin-3-yl]methyl}-4-methyl-N-[2-(trifluoromethoxy)ethyl]-2H-indazole-5-carboxamide]"
3,> 50,"Cc1c(C(=O)NCC(F)(F)F)ccc2nn(CC3CCN(C(=O)c4ccc(Oc5ccc(F)c(F)c5)cc4)CC3)cc12 [Example E137, 2-({1-[4-(3,4-difluorophenoxy)benzoyl]piperidin-4-yl}methyl)-4-methyl-N-(2,2,2-trifluoroethyl)-2H-indazole-5-carboxamide]"
4,> 50,"COCCNC(=O)c1ccc2nn(CC3CCN(C(=O)c4ccc(-n5cccn5)cc4)CC3)cc2c1C [Example E36, N-(2-methoxyethyl)-4-methyl-2-({1-[4-(1H-pyrazol-1-yl)benzoyl]piperidin-4-yl}-methyl)-2H-indazole-5-carboxamide]"
5,> 50,"COCCNC(=O)c1ccc2nn(CC3CCN(C(=O)c4ccc(-c5ccc(F)cc5C)cc4)CC3)cc2c1C [Example E189, 2-({1-[(4′-fluoro-2′-methylbiphenyl-4-yl)carbonyl]piperidin-4-yl}methyl)-N-(2-methoxyethyl)-4-methyl-2H-indazole-5-carboxamide]"
6,> 50,"COCCNC(=O)c1ccc2nn(CC3CCN(C(=O)c4ccc(Oc5cccc(F)c5)cc4)CC3)cc2c1C [Example E174, 2-({1-[4-(3-fluorophenoxy)benzoyl]piperidin-4-yl}methyl)-N-(2-methoxyethyl)-4-methyl-2H-indazole-5-carboxamide]"
7,> 50,"COCCNC(=O)c1ccc2nn(CC3CN(C(=O)c4ccc(-c5ccc(F)cc5)cc4)C3)cc2c1C [Example E108, 2-({1-[(4′-fluorobiphenyl-4-yl)carbonyl]azetidin-3-yl}methyl)-N-(2-methoxyethyl)-4-methyl-2H-indazole-5-carboxamide]"
8,> 50,"COCCNC(=O)c1ccc2nn(CC3CCN(C(=O)c4ccc(-c5ccc(Cl)cc5F)cc4)CC3)cc2c1C [Example E196, 2-({1-[(4′-chloro-2′-fluorobiphenyl-4-yl)carbonyl]piperidin-4-yl}methyl)-N-(2-methoxy-ethyl)-4-methyl-2H-indazole-5-carboxamide]"
9,> 50,"Cc1c(C(=O)NCCOCC2CC2)ccc2nn(CC3CCN(C(=O)c4ccc(-c5ccc(F)cc5)cc4)CC3)cc12 [Example E63, N-[2-(cyclopropylmethoxy)ethyl]-2-({1-[(4′-fluorobiphenyl-4-yl)carbonyl]piperidin-4-yl}methyl)-4-methyl-2H-indazole-5-carboxamide]"
10,> 50,"COCCNC(=O)c1ccc2nn(CC3CCN(C(=O)c4ccc(-c5cc(F)cc(F)c5)cc4)CC3)cc2c1C [Example E202, 2-({1-[(3′,5′-difluorobiphenyl-4-yl)carbonyl]piperidin-4-yl}methyl)-N-(2-methoxy-ethyl)-4-methyl-2H-indazole-5-carboxamide]"
11,> 50,"Cc1c(C(=O)NCCOCC2CC2)ccc2nn(CC3CCN(C(=O)c4ccc(Cl)cc4)CC3)cc12 [Example E59, 2-{[1-(4-chlorobenzoyl)piperidin-4-yl]methyl}-N-[2-(cyclopropylmethoxy)ethyl]-4-methyl-2H-indazole-5-carboxamide]"
12,> 50,"Cc1c(C(=O)NCC(F)(F)F)ccc2nn(CC3CCN(C(=O)c4ccc(Oc5cccc(C(F)(F)F)c5)cc4)CC3)cc12 [Example E132, 4-methyl-N-(2,2,2-trifluoroethyl)-2-[(1-{4-[3-(trifluoromethyl)phenoxy]benzoyl}-piperidin-4-yl)methyl]-2H-indazole-5-carboxamide]"
13,> 50,"COCCNC(=O)c1ccc2nn(CC3CCN(C(=O)c4ccc(-c5ccc(C#N)cc5C)cc4)CC3)cc2c1C [Example E180, 2-({1-[(4′-cyano-2′-methylbiphenyl-4-yl)carbonyl]piperidin-4-yl}methyl)-N-(2-methoxyethyl)-4-methyl-2H-indazole-5-carboxamide]"
14,> 50,"COCCNC(=O)c1ccc2nn(CC3CCN(C(=O)c4ccc(Oc5ccc(Cl)cn5)cc4)CC3)cc2c1C [Example E170, 2-[(1-{4-[(5-chloropyridin-2-yl)oxy]benzoyl}piperidin-4-yl)methyl]-N-(2-methoxy-ethyl)-4-methyl-2H-indazole-5-carboxamide]"
15,> 50,"Cc1c(C(=O)NCCOCC2CC2)ccc2nn(CC3CCN(C(=O)c4ccc(Oc5ccc(F)cc5)cc4)CC3)cc12 [Example E61, N-[2-(cyclopropylmethoxy)ethyl]-2-({1-[4-(4-fluorophenoxy)benzoyl]piperidin-4-yl}-methyl)-4-methyl-2H-indazole-5-carboxamide]"
16,> 50,"COCCNC(=O)c1ccc2nn(CC3CCN(C(=O)c4ccc(-c5ccc(C(C)(C)C#N)cc5)cc4)CC3)cc2c1C [Example E185, 2-[(1-{[4′-(2-cyanopropan-2-yl)biphenyl-4-yl]carbonyl}piperidin-4-yl)methyl]-N-(2-methoxyethyl)-4-methyl-2H-indazole-5-carboxamide]"
17,> 50,"[2H]C([2H])([2H])OC([2H])([2H])C([2H])([2H])NC(=O)c1ccc2nn(CC3CCN(C(=O)c4ccc(Cl)cc4)CC3)cc2c1C [Example E85, 2-{[1-(4-chlorobenzoyl)piperidin-4-yl]methyl}-4-methyl-N-{2-[(^2H3)methyloxy]-(^2H4)ethyl}-2H-indazole-5-carboxamide]"
18,> 50,"COCCNC(=O)c1ccc2nn(CC3CCN(C(=O)c4ccc(OC(F)(F)F)cc4)CC3)cc2c1C [Example E53, N-(2-methoxyethyl)-4-methyl-2-({1-[4-(trifluoromethoxy)benzoyl]piperidin-4-yl}-methyl)-2H-indazole-5-carboxamide]"
19,> 50,"COCCNC(=O)c1ccc2nn(CC3CCN(C(=O)c4ccc(-c5ccccc5)c(C)c4)CC3)cc2c1C [Example E207, N-(2-methoxyethyl)-4-methyl-2-({1-[(2-methylbiphenyl-4-yl)carbonyl]piperidin-4-yl}-methyl)-2H-indazole-5-carboxamide]"
20,> 50,"Cc1c(C(=O)NCC(F)(F)F)ccc2nn(CC3CCN(C(=O)c4ccc(-c5ccc(C(F)(F)F)cc5)cc4)CC3)cc12 [Example E138, 4-methyl-N-(2,2,2-trifluoroethyl)-2-[(1-{[4′-(trifluoromethyl)biphenyl-4-yl]carbonyl}-piperidin-4-yl)methyl]-2H-indazole-5-carboxamide]"
21,> 50,"COCCNC(=O)c1ccc2nn(CC3CCN(C(=O)c4ccc(OC5CCCC5)cc4)CC3)cc2c1C [Example E29, 2-({1-[4-(cyclopentyloxy)benzoyl]piperidin-4-yl}methyl)-N-(2-methoxyethyl)-4-methyl-2H-indazole-5-carboxamide]"
22,> 50,"COCCNC(=O)c1ccc2nn(CC3CCN(C(=O)c4ccc(-c5ccccc5)c(F)c4)CC3)cc2c1C [Example E47, 2-({1-[(2-fluorobiphenyl-4-yl)carbonyl]piperidin-4-yl}methyl)-N-(2-methoxyethyl)-4-methyl-2H-indazole-5-carboxamide]"
